Broadly, the Tmax is the time from dosing to the highest level. Broadly, the IC50 is the concentration at which inhibition is half-maximal. As a reminder, the Cmax is the highest concentration seen after dosing.

The values that follow come from ChEMBL document CHEMBL5137013 (Eur J Med Chem, 2022).

Calls of active or inactive are those of the source. No cut-off for these calls is given here.

Data set [1] is described as follows: Toxicity in human HT-29 cells xenografted BALB/c nude mouse assessed as effect on kidney at 5 to 10 mg/kg, ip administered as 2 days interval for 3 weeks and measured 3 weeks post-initial dosing by H and E staining based histopathological analysis. Type of data set: organism-based. The following applies: in vivo, 504 h, dose 5-10 mg/kg. A general note: In xenograft studies the graft and the host belong to different species.

A short description of data set [2]: Toxicity in human HT-29 cells xenografted BALB/c nude mouse assessed as effect on liver at 5 to 10 mg/kg, ip administered as 2 days interval for 3 weeks and measured 3 weeks post-initial dosing by H and E staining based histopathological analysis. The following applies: in vivo, 504 h, dose 5-10 mg/kg. Type of data set: organism-based.
The nature of data set [3]: Tmax in Sprague-Dawley rat at 10 mg/kg, iv by HPLC-MS/MS analysis. Particulars: in vivo. The class given is ADME, organism-based.
For data set [4], the system named is HT-29. Briefly: Cytotoxicity against human HT-29 cells assessed as reduction in cell viability measured after 24 hrs by MTT assay. Particulars: HT-29, 24 h. The class given is functional, cell-based.
Data set [5] concerns HT-29. Briefly: Inhibition of colony formation in human HT-29 cells at 12.5 nM measured after 24 hrs by crystal violet staining based assay. Type of data set: functional, cell-based.
Data set [6] relates to HT-29. Briefly: Cell cycle arrest in human HT-29 cells assessed as effect on cyclin B1 expression at 25 to 100 nM measured after 24 hrs by Western blot analysis. The class given is functional, cell-based. Particulars: dose 25-100 nM. A general note: In western blotting, separated proteins are transferred to a membrane and probed.
A short description of data set [7]: Cmax in Sprague-Dawley rat at 10 mg/kg, iv by HPLC-MS/MS analysis. The class given is ADME, organism-based. More on the design: dose 10 mg/kg, route iv. The following applies: in vivo.
Data set [8] deals with A549. Briefly: Antimigratory activity against human A549 cells assessed as reduction in number of penetrated cells at 12.5 to 100 nM measured after 24 hrs by crystal violet staining based transwell assay. The class given is functional, cell-based. Particulars: dose 12.5-100 nM.
Data set [9] can be described thus: Cytotoxicity against human A549/TxR cells assessed as reduction in cell viability measured after 24 hrs by MTT assay. Type of data set: functional, cell-based. For orientation: Tetrazolium assays rely on reduction of a dye to a coloured formazan, in cell work by metabolically active cells.
Data set [10] relates to HT-29. Briefly: Induction of apoptosis in human HT-29 cells assessed as increase in cleaved PARP expression at 25 to 100 nM measured after 24 hrs by Western blot analysis. Particulars: dose 25-100 nM. The class given is functional, cell-based.
In a further data set the target is Tubulin (Homo sapiens) (UniProt P68371+Q9H4B7+P0DPH7+P68366+Q13509+Q71U36+P04350+Q3ZCM7+P07437+P68363+Q9BQE3+Q6PEY2+Q13885+Q9BVA1+Q9BUF5). Briefly: Inhibition of tubulin polymerization in human HT-29 cells assessed as up regulation of detyrosinated-alpha-tubulin expression at 25 to 100 nM measured after 24 hrs by Western blot analysis. Particulars: dose 25-100 nM. The class given is cell-based.

A short description of data set [11]: Toxicity in human HT-29 cells xenografted BALB/c nude mouse assessed as effect on spleen at 5 to 10 mg/kg, ip administered as 2 days interval for 3 weeks and measured 3 weeks post-initial dosing by H and E staining based histopathological analysis. The following applies: in vivo, 504 h, dose 5-10 mg/kg. Type of data set: organism-based.
Data set [12] can be described thus: Toxicity in human HT-29 cells xenografted BALB/c nude mouse assessed as effect on heart at 5 to 10 mg/kg, ip administered as 2 days interval for 3 weeks and measured 3 weeks post-initial dosing by H and E staining based histopathological analysis. The class given is organism-based. The following applies: in vivo, 504 h, dose 5-10 mg/kg.
Data set [13] in a line: Toxicity in human HT-29 cells xenografted BALB/c nude mouse assessed as effect on lung at 5 to 10 mg/kg, ip administered as 2 days interval for 3 weeks and measured 3 weeks post-initial dosing by H and E staining based histopathological analysis. The class given is organism-based. The following applies: in vivo, 504 h, dose 5-10 mg/kg.
Data set [14] relates to A549. Briefly: Antimigratory activity against human A549 cells assessed as reduction in scratch wound recovery measured after 24 hrs by scratch wound healing assay. Type of data set: functional, cell-based. Particulars: dose 15-250 nM, DDE = dose-dependent effect.

Take `COC(=O)c1cc2c(cc1Nc1cc(OC)c(OC)c(OC)c1)OCCO2`: the Activity result in data set [1] was “Non-Toxic”; in [2], “Non-Toxic”; in data set [11] it was “Non-Toxic”; in data set [12] it was “Non-Toxic”; in data set [13], “Non-Toxic”; in the data set with A549 [14], “Dde”. For the same molecule, the time of peak concentration (Tmax) in data set [3] was determined as 8.4 min. Moreover, the IC50 is 23 nM in the data set with HT-29 [4] and 310 nM in data set [9]. The inhibition result in the data set with HT-29 [5] and at Tubulin (Homo sapiens) was “Active” throughout. Moreover, the result in the data set on HT-29 [6], in the data set with A549 [8] and with HT-29 [10] was Active. In addition, the Cmax in data set [7] was 6880 ng/mL.
